Legend:
[1] = tested on: GluN1/GluN3A with mutations in the pre-M1 region of the GluN1 subunit; test: Whole-cell patch-clamp on transiently transfected CHO cells, GluN1 pre-M1 alanine mutants; assay type: cell-based
Procedure: To establish GluN1/GluN3A stable cell lines, the human GluN1-1a (GenBank: NP_015566.1) and the rat GluN3A (GenBank: NP_612555.1) genes were subcloned into the pcDNA5-FRT-To and pcDNA3.1 vectors, respectively. An EGFP tag was added to the C-terminus of GluN1 or GluN3A using a T2A linker for identification of transfected cells during transient transfection. Point mutations were introduced by site-directed mutagenesis using PrimeSTAR (Takara). The human GluN2A (GenBank: NP_000824.1) gene was subcloned into the pcDNA3.1 vector. The chimeras GluN3A^670-673 MWPL/LEPF and GluN2A^550-553 LEPF/MWPL were generated using In-Fusion HD Cloning kits (Takara). All constructs were confirmed by DNA sequencing (Beijing Genomics Institute).
The Flp-in T-Rex 293 cell lines (Invitrogen), stably expressing GluN1/GluN3A were grown in DMEM basal medium (Gibco) supplemented with 10% fetal bovine serum (FBS, Invitrogen), 15 μg/ml blasticidin S (Invitrogen), 50 μg/ml hygromycin B (Invitrogen) and 500 μg/ml G418 (Gibco). Expression in cell lines was induced with 1 μg/ml doxycycline (Invitrogen) 24–28 h prior to the experiments. Chinese hamster ovary (CHO) cells were grown in DMEM-F12 basal medium (Gibco) supplemented with 10% FBS. In the study on the action sites of WZB117, all whole-cell patch-clamp recordings were performed on CHO cells. […]

GluN1/GluN3A receptors = GluN1/GluN3A receptors (UniProt Q05586+Q9R1M7); test: Whole-cell patch-clamp recording on GluN1/GluN3A Flp-in T-REx 293 stable cell lines; assay type: cell-based, human GluN1-1a, rat GluN3A; set-up: expressed in transfected cells
[2] = molecular target: T1, native GluN1/GluN3 receptors (Rattus norvegicus, UniProt P35439+Q9R1M7); test: Whole-cell patch-clamp, glycine-induced currents after CGP-78608 in acutely isolated hippocampal neurons; assay type: cell-based; conditions: 10 μM WZB117; glycine-induced currents after incubation with CGP-78608
T1 construct: endogenous in cells; host or cells: acutely isolated hippocampal neurons, Sprague-Dawley rats P7-14
Procedure: (§1) Hippocampal neurons were obtained from Sprague-Dawley rats (aged P7-14). Briefly, the isolated hippocampal tissues were cut into approximately […] slices along the sagittal plane and were digested with 3 mg/ml proteinase (Sigma-Aldrich) at 32°C for 8 min. Then 1 mg/ml bovine serum albumin (Sangon Biotech) and 1 mg/ml trypsin inhibitor (Sigma-Aldrich) were used to stop the digestion. A few slices of the hippocampus were gently blown into single cells with the dissecting solution, then transferred to a dish and left to rest for 20 min before experiments. The dishes were preprocessed. Essentially, the bottom of the dish was covered with discarded cell suspension the day before the experiment and was washed and dried the next day, which prevented the neurons from sticking to the bottom too tightly. The dissecting solution contained (in mM): 82 Na2SO4, 30 K2SO4, 5 MgCl2, 1 Na pyruvate, 10 HEPES, and 20 glucose. The pH was adjusted to 7.2 using NaOH ([Xie et al., 2020]).
(§2) Whole-cell patch-clamp recordings were performed at room temperature (22–25°C) using an EPC-10 amplifier and Patch Master Software (HEKA). Pipettes were pulled from borosilicate glass capillaries (World Precision Instruments), and the resistances were 3–5 MΩ when filled with the intracellular solution. […]

GluN2-containing NMDARs = test: Whole-cell patch-clamp, NMDA-induced native currents in acutely isolated hippocampal neurons; assay type: cell-based, rat; conditions: 10 μM WZB117
Procedure: as §1, §2

Sequence of GluN1/GluN3A receptors (Q9R1M7 24-1135, other chains not shown): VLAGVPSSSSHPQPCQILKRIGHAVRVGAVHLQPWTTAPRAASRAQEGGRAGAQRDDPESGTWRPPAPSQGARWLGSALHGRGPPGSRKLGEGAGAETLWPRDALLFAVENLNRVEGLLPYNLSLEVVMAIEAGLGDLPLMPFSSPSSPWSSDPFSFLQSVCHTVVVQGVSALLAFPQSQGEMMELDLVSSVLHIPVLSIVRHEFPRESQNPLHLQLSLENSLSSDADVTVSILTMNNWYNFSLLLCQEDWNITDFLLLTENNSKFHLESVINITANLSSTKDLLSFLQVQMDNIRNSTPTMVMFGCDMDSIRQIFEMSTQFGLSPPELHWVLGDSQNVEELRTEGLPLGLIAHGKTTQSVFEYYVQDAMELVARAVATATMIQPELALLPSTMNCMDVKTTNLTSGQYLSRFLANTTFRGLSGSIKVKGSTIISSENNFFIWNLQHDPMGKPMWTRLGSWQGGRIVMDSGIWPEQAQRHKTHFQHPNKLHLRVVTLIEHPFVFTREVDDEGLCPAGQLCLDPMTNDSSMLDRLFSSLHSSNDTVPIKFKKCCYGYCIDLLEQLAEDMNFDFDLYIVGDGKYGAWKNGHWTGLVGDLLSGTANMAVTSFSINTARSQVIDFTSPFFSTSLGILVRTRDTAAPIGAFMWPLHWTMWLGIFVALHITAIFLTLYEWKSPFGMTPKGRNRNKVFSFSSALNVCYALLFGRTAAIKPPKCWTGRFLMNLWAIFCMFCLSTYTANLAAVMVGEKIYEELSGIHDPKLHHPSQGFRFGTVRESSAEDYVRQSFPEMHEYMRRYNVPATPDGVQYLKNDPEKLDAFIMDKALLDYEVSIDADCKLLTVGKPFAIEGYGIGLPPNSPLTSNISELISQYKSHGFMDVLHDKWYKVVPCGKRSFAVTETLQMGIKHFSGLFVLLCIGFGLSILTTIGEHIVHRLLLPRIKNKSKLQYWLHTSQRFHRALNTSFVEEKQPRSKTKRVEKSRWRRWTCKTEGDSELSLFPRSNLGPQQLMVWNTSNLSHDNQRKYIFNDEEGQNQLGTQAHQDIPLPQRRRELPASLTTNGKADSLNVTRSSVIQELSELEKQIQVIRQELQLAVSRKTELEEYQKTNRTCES
T1 sequence (Q9R1M7 24-1135, other chains not shown): as above

O=C(Oc1cccc(F)c1OC(=O)c1cccc(O)c1)c1cccc(O)c1 [WZB117, 3-fluoro-1,2-phenylene bis(3-hydroxybenzoate)]
influence of mutations on activity [1]: none of the mutations in the pre-M1 region of the GluN1 subunit showed a detectable influence | voltage-dependence of inhibition activity (GluN1/GluN3A receptors; 3 μM WZB117, +40 mV and −60 mV): no significant change | IC50 (GluN1/GluN3A receptors; pH 6.9): 1270 ± 390 nM | IC50 (GluN1/GluN3A receptors; pH 8.3): 1090 ± 220 nM | I drug/I control [2]: 0.18 ± 0.03 | I drug/I control (GluN2-containing NMDARs): 0.73 ± 0.01
